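In this assay, cells in 96-well plates receive the compound at five concentrations for 48 hours. Endpoints are linearly interpolated between the surrounding concentrations. GI50: concentration for 50% inhibition of growth. TGI: total growth inhibition.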
How the values were obtained:
Experiment in all cases: NCI-60 cell line screen, 48 h
CCRF-CEM leukemia = test system: CCRF-CEM leukemia
TK-10 renal = test system: TK-10 renal
MCF7 breast = test system: MCF7 breast
K-562 leukemia = test system: K-562 leukemia
A549 NSCLC = test system: A549 NSCLC
SK-MEL-28 melanoma = test system: SK-MEL-28 melanoma
MDA-MB-468 breast = test system: MDA-MB-468 breast
DU-145 prostate = test system: DU-145 prostate
EKVX NSCLC = test system: EKVX NSCLC
UO-31 renal = test system: UO-31 renal
NCI-H23 lung = test system: NCI-H23 lung
A498 renal = test system: A498 renal
MALME-3M melanoma = test system: MALME-3M melanoma
SF-295 CNS = test system: SF-295 CNS
PC-3 prostate = test system: PC-3 prostate
RXF 393 renal = test system: RXF 393 renal
SK-OV-3 ovarian = test system: SK-OV-3 ovarian
SF-539 CNS = test system: SF-539 CNS
OVCAR-4 ovarian = test system: OVCAR-4 ovarian
KM12 colon = test system: KM12 colon
786-0 renal = test system: 786-0 renal
IGROV1 ovarian = test system: IGROV1 ovarian
LOX IMVI melanoma = test system: LOX IMVI melanoma
NCI-H460 lung = test system: NCI-H460 lung
ACHN renal = test system: ACHN renal
SW-620 colon = test system: SW-620 colon
RPMI-8226 leukemia = test system: RPMI-8226 leukemia
HS 578T breast = test system: HS 578T breast
SK-MEL-2 melanoma = test system: SK-MEL-2 melanoma
SN12C renal = test system: SN12C renal
UACC-62 melanoma = test system: UACC-62 melanoma
SR leukemia = test system: SR leukemia
M14 melanoma = test system: M14 melanoma
HCT-116 colon = test system: HCT-116 colon
SNB-19 CNS = test system: SNB-19 CNS
UACC-257 melanoma = test system: UACC-257 melanoma
HOP-62 NSCLC = test system: HOP-62 NSCLC
MOLT-4 leukemia = test system: MOLT-4 leukemia
MDA-MB-435 = test system: MDA-MB-435
OVCAR-8 ovarian = test system: OVCAR-8 ovarian
SF-268 CNS = test system: SF-268 CNS
HCT-15 colon = test system: HCT-15 colon
COLO 205 colon = test system: COLO 205 colon
OVCAR-3 ovarian = test system: OVCAR-3 ovarian
OVCAR-5 ovarian = test system: OVCAR-5 ovarian
MDA-MB-231 breast = test system: MDA-MB-231 breast
HT29 colon = test system: HT29 colon
SK-MEL-5 melanoma = test system: SK-MEL-5 melanoma
BT-549 breast = test system: BT-549 breast
HCC-2998 colon = test system: HCC-2998 colon
CAKI-1 renal = test system: CAKI-1 renal
NCI-H226 lung = test system: NCI-H226 lung

Structure (SMILES): COc1ccc2[nH]cc(-c3cc4nc(-c5cn(C)c6ncc(Br)cc56)cc(N)n4n3)c2c1
- GI50 (CCRF-CEM leukemia): 2850 nM
- TGI (CCRF-CEM leukemia): > 100000 nM
- GI50 (TK-10 renal): 2480 nM
- TGI (TK-10 renal): 6390 nM
- GI50 (MCF7 breast): 1670 nM
- TGI (MCF7 breast): 3050 nM
- GI50 (K-562 leukemia): 2590 nM
- TGI (K-562 leukemia): > 100000 nM
- GI50 (A549 NSCLC): 1770 nM
- TGI (A549 NSCLC): 5070 nM
- GI50 (SK-MEL-28 melanoma): 1670 nM
- TGI (SK-MEL-28 melanoma): 3080 nM
- GI50 (MDA-MB-468 breast): 1420 nM
- TGI (MDA-MB-468 breast): 2860 nM
- GI50 (DU-145 prostate): 1780 nM
- TGI (DU-145 prostate): 3640 nM
- GI50 (EKVX NSCLC): 1660 nM
- TGI (EKVX NSCLC): 3840 nM
- GI50 (UO-31 renal): 1730 nM
- TGI (UO-31 renal): 4160 nM
- GI50 (NCI-H23 lung): 1760 nM
- TGI (NCI-H23 lung): 3510 nM
- GI50 (A498 renal): 2220 nM
- TGI (A498 renal): 7010 nM
- GI50 (MALME-3M melanoma): 1680 nM
- TGI (MALME-3M melanoma): 3170 nM
- GI50 (SF-295 CNS): 1570 nM
- TGI (SF-295 CNS): 3070 nM
- GI50 (PC-3 prostate): 2540 nM
- TGI (PC-3 prostate): 10300 nM
- GI50 (RXF 393 renal): 1730 nM
- TGI (RXF 393 renal): 3230 nM
- GI50 (SK-OV-3 ovarian): 2380 nM
- TGI (SK-OV-3 ovarian): 5640 nM
- GI50 (SF-539 CNS): 1640 nM
- TGI (SF-539 CNS): 3030 nM
- GI50 (OVCAR-4 ovarian): 1840 nM
- TGI (OVCAR-4 ovarian): 3790 nM
- GI50 (KM12 colon): 1990 nM
- TGI (KM12 colon): 4420 nM
- GI50 (786-0 renal): 1770 nM
- TGI (786-0 renal): 3290 nM
- GI50 (IGROV1 ovarian): 1650 nM
- TGI (IGROV1 ovarian): 3430 nM
- GI50 (LOX IMVI melanoma): 1650 nM
- TGI (LOX IMVI melanoma): 3110 nM
- GI50 (NCI-H460 lung): 1800 nM
- TGI (NCI-H460 lung): 3470 nM
- GI50 (ACHN renal): 1460 nM
- TGI (ACHN renal): 3350 nM
- GI50 (SW-620 colon): 1750 nM
- TGI (SW-620 colon): 3350 nM
- GI50 (RPMI-8226 leukemia): 2910 nM
- TGI (RPMI-8226 leukemia): > 100000 nM
- GI50 (HS 578T breast): 1800 nM
- TGI (HS 578T breast): 4580 nM
- GI50 (SK-MEL-2 melanoma): 1680 nM
- TGI (SK-MEL-2 melanoma): 3250 nM
- GI50 (SN12C renal): 1700 nM
- TGI (SN12C renal): 3300 nM
- GI50 (UACC-62 melanoma): 1550 nM
- TGI (UACC-62 melanoma): 3040 nM
- GI50 (SR leukemia): 2740 nM
- TGI (SR leukemia): > 100000 nM
- GI50 (M14 melanoma): 1830 nM
- TGI (M14 melanoma): 3550 nM
- GI50 (HCT-116 colon): 1810 nM
- TGI (HCT-116 colon): 3300 nM
- GI50 (SNB-19 CNS): 2450 nM
- TGI (SNB-19 CNS): 6630 nM
- GI50 (UACC-257 melanoma): 1720 nM
- TGI (UACC-257 melanoma): 3480 nM
- GI50 (HOP-62 NSCLC): 2070 nM
- TGI (HOP-62 NSCLC): 5490 nM
- GI50 (MOLT-4 leukemia): 2240 nM
- TGI (MOLT-4 leukemia): > 100000 nM
- GI50 (MDA-MB-435): 1680 nM
- TGI (MDA-MB-435): 3210 nM
- GI50 (OVCAR-8 ovarian): 1860 nM
- TGI (OVCAR-8 ovarian): 3660 nM
- GI50 (SF-268 CNS): 1840 nM
- TGI (SF-268 CNS): 4330 nM
- GI50 (HCT-15 colon): 1350 nM
- TGI (HCT-15 colon): 2810 nM
- GI50 (COLO 205 colon): 1820 nM
- TGI (COLO 205 colon): 3450 nM
- GI50 (OVCAR-3 ovarian): 1810 nM
- TGI (OVCAR-3 ovarian): 3490 nM
- GI50 (OVCAR-5 ovarian): 1590 nM
- TGI (OVCAR-5 ovarian): 3440 nM
- GI50 (MDA-MB-231 breast): 1650 nM
- TGI (MDA-MB-231 breast): 3360 nM
- GI50 (HT29 colon): 1960 nM
- TGI (HT29 colon): 3950 nM
- GI50 (SK-MEL-5 melanoma): 1780 nM
- TGI (SK-MEL-5 melanoma): 3340 nM
- GI50 (BT-549 breast): 2140 nM
- TGI (BT-549 breast): 4670 nM
- GI50 (HCC-2998 colon): 1740 nM
- TGI (HCC-2998 colon): 3170 nM
- GI50 (CAKI-1 renal): 1410 nM
- TGI (CAKI-1 renal): 3540 nM
- GI50 (NCI-H226 lung): 1950 nM
- TGI (NCI-H226 lung): 3970 nM
